Source: US20130030048A1, “COMPOSITION FOR INDUCING MULTIPLE NUCLEAR DIVISION OF CELLS” (priority 2010, published 2013)

Tested on: Human Mammary Epithelial (HME) 50 HT cell line
Assay: Multiple nuclear divisions in cultured HME 50 HT cells
Format: cell-based
Conditions: HME 50 HT cells in serum-free medium; FIGS. 3 and 4
Protocol: Such a culture medium was treated with the composition comprising the compound of formula II obtained in the Example 1 and the compound of formula III obtained in the Examples 2 to 5, respectively.
And, it was found from the photomicrographs that the cells appeared very healthy and unstressed.

Row | SMILES | multiple nuclear divisions in the cell (stained-cell image)
1 | C=CC1(N)C(=O)COC=C1C (centres unmarked) [compound of formula II] | multiple nuclear divisions occurred in the cell
2 | CCC1(N)C(=O)COC=C1C (centres unmarked) [compound of formula III] | multiple nuclear divisions occurred in the cell
